# Results from the supplement of paper PMC9663587.
# Columns and labels:
# YKL-5-124 = compound: C=CC(=O)Nc1ccc(C(=O)Nc2[nH]nc3c2CN(C(=O)N[C@H](CN(C)C)c2ccccc2)C3(C)C)cc1 [YKL-5-124]
# Bleomycin = compound: CC1=C(N=C(N=C1N)[C@H](CC(=O)N)NC[C@@H](C(=O)N)N)C(=O)N[C@@H]([C@H](C2=CN=CN2)OC3C(C(C(C(O3)CO)O)O)OC4C(C(C(C(O4)CO)O)OC(=O)N)O)C(=O)N[C@H](C)[C@H]([C@H](C)C(=O)N[C@@H]([C@@H](C)O)C(=O)NCCC5=NC(=CS5)C6=NC(=CS6)C(=O)NCCC[S+](C)C)O [Bleomycin]; conditions: main component drawn
# Topotecan = compound: CC[C@@]1(O)C(=O)OCc2c1cc1n(c2=O)Cc2cc3c(CN(C)C)c(O)ccc3nc2-1 [Topotecan]
# Etoposide = compound: COc1cc([C@@H]2c3cc4c(cc3[C@@H](O[C@@H]3O[C@@H]5CO[C@@H](C)O[C@H]5[C@H](O)[C@H]3O)[C@H]3COC(=O)[C@H]23)OCO4)cc(OC)c1O [Etoposide]
# [1] = compound: COc1cccc(OCCCN)c1-c1cc(Nc2cnc(C#N)cn2)n[nH]1
# Cisplatin = compound: N.N.Cl[Pt]Cl [Cisplatin]
# BSJ-03-123 = compound: CC(=O)c1c(C)c2cnc(Nc3ccc(N4CCN(CCOCCOCCOCCNC(=O)COc5cccc6c5C(=O)N(C5CCC(=O)NC5=O)C6=O)CC4)cn3)nc2n(C2CCCC2)c1=O [BSJ-03-123]; assay: GR value, 72 h; higher = faster growth (1 = untreated, <0 = killing);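 also: breast cancer and non-malignant breast epithelial lines, nine half-log doses, viable cells counted by Hoechst and LIVE/DEAD dye imaging versus time-zero plates and DMSO controls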
# Neratinib/HKI272 = compound: CCOc1cc2ncc(C#N)c(Nc3ccc(OCc4ccccn4)c(Cl)c3)c2cc1NC(=O)/C=C/CN(C)C [Neratinib/HKI272]; assay: as above
# Everolimus = compound: CO[C@H]1C[C@@H]2CC[C@@H](C)[C@@](O)(O2)C(=O)C(=O)N2CCCC[C@H]2C(=O)O[C@H]([C@H](C)C[C@@H]2CC[C@@H](OCCO)[C@H](OC)C2)CC(=O)[C@H](C)/C=C(\C)[C@@H](O)[C@@H](OC)C(=O)[C@H](C)C[C@H](C)/C=C/C=C/C=C/1C [Everolimus]
# FMF-03-145-1 = compound: CCC(=O)Nc1ccc(C(=O)Nc2ccc(Nc3ncc4c(n3)N(C)c3ccc(C)cc3C(=O)N4C)cc2)cc1 [FMF-03-145-1]
# 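For GR50, 72 h in this document: breast cancer and non-malignant breast epithelial cell lines, Deep Dye Drop or Dye Drop imaging, nine half-log doses, GR normalized to time-zero plates and DMSO-only controls.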
Cell Line,"GR50, 72 h (YKL-5-124) [µM]","GR50, 72 h (Bleomycin) [µM]","GR50, 72 h (Topotecan) [µM]","GR50, 72 h (Etoposide) [µM]","GR50, 72 h [1] [µM]","GR50, 72 h (Cisplatin) [µM]",GR value (BSJ-03-123; 0.001 µM) [GR],GR value (BSJ-03-123; 0.003162 µM) [GR],GR value (BSJ-03-123; 0.01 µM) [GR],GR value (BSJ-03-123; 0.03162 µM) [GR],GR value (BSJ-03-123; 0.1 µM) [GR],GR value (BSJ-03-123; 0.3162 µM) [GR],GR value (BSJ-03-123; 1 µM) [GR],GR value (BSJ-03-123; 3.162 µM) [GR],GR value (BSJ-03-123; 10 µM) [GR],GR value (Neratinib/HKI272; 0.0003162 µM) [GR],GR value (Neratinib/HKI272; 0.001 µM) [GR],GR value (Neratinib/HKI272; 0.003162 µM) [GR],GR value (Neratinib/HKI272; 0.01 µM) [GR],GR value (Neratinib/HKI272; 0.03162 µM) [GR],GR value (Neratinib/HKI272; 0.1 µM) [GR],GR value (Neratinib/HKI272; 0.3162 µM) [GR],GR value (Neratinib/HKI272; 1 µM) [GR],GR value (Neratinib/HKI272; 3.162 µM) [GR],"GR50, 72 h (Everolimus) [µM]","GR50, 72 h (FMF-03-145-1) [µM]"
BT20,0.0135,0.488,0.0123,0.301,0.000944,0.791,0.934,0.738,0.759,0.7,0.664,0.528,0.445,0.365,0.0085,1.04,1.03,1.07,0.976,0.918,0.86,0.693,0.607,0.295,–,–
BT549,0.00293,0.18,0.00847,0.181,2.27e-05,1.02,0.998,0.999,1,0.988,0.998,0.976,0.938,0.88,0.0237,1.02,1.03,1,1.04,1.02,0.969,0.904,0.793,0.196,> 10,–
EFM19,< 0.001,–,–,–,–,–,0.951,0.918,0.806,0.733,0.717,0.654,0.48,0.447,0.117,1.07,1.12,1.12,1.05,1.06,1.03,0.933,0.811,0.688,< 0.001,0.00827
MCF10A (GM),< 0.001,–,–,–,0.0122,–,0.904,0.952,0.879,0.859,0.884,0.795,0.658,0.549,-0.17,–,–,–,–,–,–,–,–,–,–,0.00563
MCF12A,0.0013,–,–,–,0.000725,–,0.975,0.912,0.971,0.952,0.98,0.942,0.883,0.753,0.126,1.07,0.998,1.01,1.04,1.03,0.893,0.546,0.336,0.0907,> 10,0.00914
MDAMB231,< 0.001,6.32,0.0297,0.704,0.000148,2.41,0.926,0.889,0.828,0.779,0.69,0.644,0.466,0.478,-0.156,1.03,0.999,0.978,1.05,1.03,1.01,0.917,0.688,-0.0968,> 10,–
MDAMB468,< 0.001,0.823,0.0158,0.488,–,1.26,1,0.923,0.902,0.806,0.91,0.771,0.636,0.476,-0.0278,0.947,0.97,0.983,0.969,0.838,0.56,0.257,-0.0811,-0.395,> 10,0.00536
PDX1258,0.00166,0.783,0.0135,0.317,0.000103,2.56,1.13,0.919,1.2,1.29,1.08,1.02,0.916,0.819,-0.415,1.07,1.02,1.1,1,0.938,0.772,0.749,0.548,0.195,> 10,–
PDX1328,–,4,0.00592,0.805,0.000974,0.784,0.951,0.816,0.819,0.792,0.852,0.646,0.479,0.531,0.0901,1.02,1.02,1.01,0.898,0.762,0.675,0.537,0.223,0.0191,–,–
PDXHCI002,< 0.001,1.16,0.00665,0.182,–,1.73,1.08,1.03,0.992,0.883,0.812,0.771,0.565,0.472,-0.0835,1.05,1,1.02,0.829,0.637,0.54,0.378,0.19,-0.143,> 10,–
T47D,< 0.001,0.199,0.00523,0.0417,–,1.57,0.505,0.473,0.28,0.231,0.228,0.203,0.115,0.165,0.118,1.02,1.01,0.94,0.899,0.749,0.65,0.584,0.382,0.215,< 0.001,–
UACC812,< 0.001,–,–,–,–,–,0.833,0.862,0.699,0.711,0.74,0.887,0.48,0.408,-0.328,1.02,0.785,0.449,0.258,-0.145,-0.384,-0.493,-0.574,-0.747,–,0.00186
ZR751,0.0019,–,–,–,0.0012,–,0.927,0.911,0.863,0.788,0.838,0.697,0.625,0.617,0.22,1.01,1.03,0.972,1.02,0.92,0.864,0.741,0.757,0.733,< 0.001,0.00573
